Experimental data taken from patent US10072249B2, “Method of inducing kidney from pluripotent stem cells” (NATIONAL UNIVERSITY CORPORATION KUMAMOTO UNIVERSITY, priority 2013, dated 2018).

Legend:
[1] = tested on: Osr1-GFP+ cells from the caudal part of E9.5 embryos; assay: Culture of sorted E9.5 posterior Osr1-GFP+ cell aggregates, then colony-formation assay on Wnt4 feeder cells; assay type: cell-based, mouse
Method: In vitro colony-formation assays were performed as described previously (Osafune et al., 2006). Briefly, progenitor cells were sorted by a FACS Aria II (Becton Dickinson) and plated onto NIH3T3 cells stably expressing Wnt4 at a low density (1,250-10,000 cells/well of 6-well plates). The cells were then cultured in DMEM/F12 containing 5% knockout serum replacement (Invitrogen), 10 μg/ml insulin, 6.7 μg/1 sodium selenite, 5.5 μg/ml transferrin, 1×10^−7 mol/l dexamethasone, 10 mmol/l nicotinamide, 2 mmol/l L-glutamine, 50 μmol/l 2-mercaptoethanol, 5 mmol/l HEPES and penicillin/streptomycin.
For embryonic tissue cultures at E8.5, the presomitic regions of 6-10 somite-stage embryos were harvested and T-GFP+ cells were sorted by FACS. The sorted cells were aggregated at 7,000 cells per aggregate in 96-well low-cell-binding plates and cultured in serum-free chemically-defined medium. In the embryonic tissue cultures at E9.5, the posterior regions from the 23rd somite region of 22-26 somite-stage embryos were harvested and Osr1-GFP+ or Wt1-GFP+ cells were sorted by FACS. The sorted cells were aggregated at 10,000 cells per aggregate in 96-well low-cell-binding plates and cultured in serum-free chemically-defined medium.
Induced cell aggregates from embryonic tissues or ES cells were dissociated by incubation with 0.25% trypsin for 5 min. After blocking in normal mouse serum (Thermo Scientific), cell surface marker staining was carried out in buffer comprising 1% bovine serum albumin, 1×HBSS and 0.035% NaHCO3. Data were analyzed with FlowJo software (Treestar).
RNA was isolated using an RNeasy Plus Micro Kit (Qiagen), and then reverse-transcribed with random primers and Superscript III (Invitrogen). Quantitative PCR was carried out using a Real-Time PCR System (Applied Biosystems) and Thunderbird SYBR qPCR Mix (Toyobo). All samples were normalized by the β-actin expression using the relative standard curve method.
To test the hypothesis, Osr1-GFP+ cells from the caudal part of E9.5 embryos were sorted, and were plated into low-cell-binding plates in the presence of the Rho kinase inhibitor Y27632, which supports cell survival. The cells spontaneously re-aggregated and formed spheres within 24 h.

Osr1-GFP ES cell line = assay: Induction of metanephric nephron progenitors from mouse ES cells; assay type: cell-based; conditions: low concentration, 24 h after 2 days of EB formation
Method: Mouse ES cells (Osr1-GFP) were maintained on murine embryonic fibroblasts in DMEM (Invitrogen) supplemented with 15% fetal calf serum, 0.1 mM 2-mercaptoethanol (Nacalai Tesque) and 1,000 U/ml leukemia inhibitory factor (ESGRO). EB3-DsRed cells, gifts from Dr. Hitoshi Niwa (CDB RIKEN), were maintained as reported previously (Usui et al., Am. J. Pathol. 180, 2417-2426, 2012). Before the initiation of differentiation, the ES cells were passaged once onto feeder cell-free gelatin-coated dishes in DMEM (Invitrogen) supplemented with 15% fetal bovine serum, 0.1 mM 2-mercaptoethanol, 1,000 U/ml leukemia inhibitory factor, 3 μM CHIR99021 (Wako) and 1 μM PD0325901 (Wako). ES cell differentiation was carried out in serum-free medium as follows. […]
RNA was isolated using an RNeasy Plus Micro Kit (Qiagen), and then reverse-transcribed with random primers and Superscript III (Invitrogen). Quantitative PCR was carried out using a Real-Time PCR System (Applied Biosystems) and Thunderbird SYBR qPCR Mix (Toyobo). […]

[2] = exogenous addition to aggregate culture

Molecule: C[C@@H](N)[C@H]1CC[C@H](C(=O)Nc2ccncc2)CC1 [Y27632]
- expressions of Pax2, Six2 and Gdnf compared with the starting point ([1]; 48 h of culture of aggregates in low-cell-binding plates): more than 10 fold
- Osr1+/Itga8+/Pdgfra− population (FACS) ([1]; cultured aggregates): 10.0±0.01 % of the total cells

Molecule: Cc1c[nH]c(-c2cnc(NCCNc3ccc(C#N)cn3)nc2-c2ccc(Cl)cc2Cl)n1 [CHIR99021, 6-[[2-[[4-(2,4-dichlorophenyl)-5-(4-methyl-1H-imidazol-2-yl)-2-pyrimidinyl]amino]ethyl]amino]nicotinonitrile]
- induction of colony-forming progenitors and nephric gene expressions ([1]; high concentrations, 3 or 10 μM): inhibitory
- colony formation ([1]; low concentration, 1 μM): slightly improved

B1: Bmp4: human Bmp4 growth factor (R&D Systems) (protein, UniProt P12644 293-408, looked up)
Bone morphogenetic protein 4: SPKHHSQRARKKNKNCRRHSLYVDFSDVGWNDWIVAPPGYQAFYCHGDCPFPLADHLNSTNHAIVQTLVNSVNSSIPKACCVPTELSAISMLYLDEYDKVVLKNYQEMVVEGCGCR
- induction of colony-forming progenitors and nephric gene expressions [1, 2]: inhibitory

B2: activin: human activin A growth factor (R&D Systems) (protein, UniProt P08476 311-426, looked up)
Inhibin beta A chain: GLECDGKVNICCKKQFFVSFKDIGWNDWIIAPSGYHANYCEGECPSHIAGTSGSSLSFHSTVINHYRMRGHSPFANLKSCCVPTKLRPMSMLYYDDGQNIIKKDIQNMIVEECGCS
modifications: Inhibin beta A chain
- expression of the epiblast marker Fgf5 (Osr1-GFP ES cell line): induced transient expression
- induction of colony-forming progenitors and nephric gene expressions [1, 2]: inhibitory
